Reference: ChEMBL document CHEMBL5214915 (Eur J Med Chem, 2021)
Values after ≈ are worked out from the molar mass of the structure shown.

Key:
Assay type in all cases: functional
[1] = test system: Mycobacterium tuberculosis variant bovis; experiment: Antibacterial activity against Mycobacterium bovis BCG incubated for 1 week in 7H9/ADC/Tw medium
[2] = test system: Mycobacterium tuberculosis variant bovis; experiment: Antibacterial activity against Mycobacterium bovis BCG incubated for 1 week in 7H9/ADC/Tw medium in presence of 0.5 mM chorismate
[3] = test system: Mycobacterium tuberculosis variant bovis; experiment: Antibacterial activity against Mycobacterium bovis BCG incubated for 1 week in 7H9/ADC/Tw medium in presence of 0.1 mM chorismate
[4] = test system: Mycobacterium tuberculosis variant bovis; experiment: Antibacterial activity against Mycobacterium bovis BCG incubated for 1 week in 7H9/ADC/Tw medium in presence of 0.1 mM anthranilate
[5] = test system: Mycobacterium tuberculosis variant bovis; experiment: Antibacterial activity against Mycobacterium bovis BCG incubated for 1 week in 7H9/ADC/Tw medium in presence of 0.1 mM Trp
[6] = test system: Mycobacterium tuberculosis variant bovis; experiment: Antibacterial activity against Mycobacterium bovis BCG incubated for 1 week in 7H9/ADC/Tw medium in presence of 0.1 mM indole
[7] = Mycobacterium tuberculosis variant bovis, BCG, 168 h, read-out: MIC

SMILES	MIC [1]	MIC [2]	MIC [3]	MIC [4]	MIC [5]	MIC [6]	MIC [1, 7]	MIC [2, 7]	MIC [3, 7]	MIC [4, 7]	MIC [5, 7]	MIC [6, 7]
Cl.Nc1cccc(F)c1C(=O)NNc1ccccc1	3.5 µM	14.2 µM	7.1 µM	>50 µM	>50 µM	>50 µM						
Nc1cccc(F)c1C(=O)NNc1c(Cl)cc(Cl)cc1Cl							22.9 µM (≈ 7.98 µg/mL)	45.9 µM	45.9 µM	> 50 µM	> 50 µM	> 50 µM
Nc1cccc(F)c1C(=O)NNc1ccccc1							2 µM (≈ 0.491 µg/mL)	8.15 µM	8.15 µM	> 50 µM	> 50 µM	> 50 µM
Nc1cccc(F)c1C(=O)O							6.4 µM (≈ 0.993 µg/mL)	6.4 µM	6.4 µM	> 50 µM	> 50 µM	> 50 µM
